Values joined by “and” are separate entries in the source; they are usually repeats but may differ in a detail not shown here. Equal values may be shown once.
Tested on: NCI-H196 SCLC complex tumor spheroid viability
Assay: Anticancer human tumor NCI-H196 cell line growth inhibition;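 further: spheroids exposed to compounds for 7 days before readout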;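 on viability, T/C: 100% = DMSO vehicle control wells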
Settings: for viability, T/C: stronger effect = lower value; active means viability on the fitted dose curve at most 10% of control; inactive means the rest
In short: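 Complex spheroids of malignant cells with endothelial cells and mesenchymal stem cells; agents alone or combined, from near clinical Cmax (or 10 microM if unknown) down in half-log steps, 0.25% DMSO final.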

[1] = curve of first compound, second compound 30 pM
[2] = curve of first compound, second compound 94.9 pM
[3] = curve of first compound, second compound 0.0003 µM
[4] = curve of first compound, second compound 0.000949 µM
[5] = curve of first compound, second compound 0.003 µM
[6] = second compound 30 pM, first compound 0.0316 µM
[7] = second compound 30 pM, first compound 0.1 µM
[8] = second compound 30 pM, first compound 0.316 µM
[9] = second compound 30 pM, first compound 1 µM
[10] = second compound 30 pM, first compound 3.16 µM
[11] = second compound 30 pM, first compound 10 µM
[12] = second compound 94.9 pM, first compound 0.0316 µM
[13] = second compound 94.9 pM, first compound 0.1 µM
[14] = second compound 94.9 pM, first compound 0.316 µM
[15] = second compound 94.9 pM, first compound 1 µM
[16] = second compound 94.9 pM, first compound 3.16 µM
[17] = second compound 94.9 pM, first compound 10 µM
[18] = second compound 0.0003 µM, first compound 0.0316 µM
[19] = second compound 0.0003 µM, first compound 0.1 µM
[20] = second compound 0.0003 µM, first compound 0.316 µM
[21] = second compound 0.0003 µM, first compound 1 µM
[22] = second compound 0.0003 µM, first compound 3.16 µM
[23] = second compound 0.0003 µM, first compound 10 µM
[24] = second compound 0.000949 µM, first compound 0.0316 µM
[25] = second compound 0.000949 µM, first compound 0.1 µM
[26] = second compound 0.000949 µM, first compound 0.316 µM
[27] = second compound 0.000949 µM, first compound 1 µM
[28] = second compound 0.000949 µM, first compound 3.16 µM
[29] = second compound 0.000949 µM, first compound 10 µM
[30] = second compound 0.003 µM, first compound 0.0316 µM
[31] = second compound 0.003 µM, first compound 0.1 µM
[32] = second compound 0.003 µM, first compound 0.316 µM
[33] = second compound 0.003 µM, first compound 1 µM
[34] = second compound 0.003 µM, first compound 3.16 µM
[35] = second compound 0.003 µM, first compound 10 µM

[2H]c1nc(C)nc([2H])c1-c1cc(NC[C@@H](C)c2cccc3c(C(=O)NC)ccnc23)ncn1 + COc1cc2c(cc1O)CCNC21CSC2c3c(OC(C)=O)c(C)c4c(c3C(COC1=O)N1C(O)C3Cc5cc(C)c(OC)c(O)c5C(C21)N3C)OCO4
inactive: viability, T/C [6] 102% | viability, T/C [7] 102% | viability, T/C [8] 101% | viability, T/C [9] 104% | viability, T/C [10] 99.4% | viability, T/C [11] 97.6% | viability, T/C [12] 105% | viability, T/C [13] 108% | viability, T/C [14] 101% | viability, T/C [15] 106% | viability, T/C [16] 97.8% | viability, T/C [17] 104% | viability, T/C [18] 102% | viability, T/C [19] 106% | viability, T/C [20] 106% | viability, T/C [21] 105% | viability, T/C [22] 104% | viability, T/C [23] 105% | viability, T/C [24] 92.5% | viability, T/C [25] 86% | viability, T/C [26] 88.2% | viability, T/C [27] 83.5% | viability, T/C [28] 83.4% | viability, T/C [29] 93.7%
< 0.0316 µM: IC50 [5]
> 10 µM: IC50 [1] | IC50 [2] | IC50 [3] | IC50 [4]
active: viability, T/C [30] 5.55% | viability, T/C [31] 6.42% | viability, T/C [32] 3.96% | viability, T/C [33] 6.02% | viability, T/C [34] 4.53% | viability, T/C [35] 2.75%

[2H]c1nc(C)nc([2H])c1-c1cc(NC[C@@H](C)c2cccc3c(C(=O)NC)ccnc23)ncn1
> 10 µM: IC50 (curve of compound)
inactive: viability, T/C (compound 0.0316 µM) 104% and 105% and 99.6% | viability, T/C (compound 0.1 µM) 102% and 99.5% and 104% | viability, T/C (compound 0.316 µM) 98.1% and 106% and 96.8% | viability, T/C (compound 1 µM) 99.2% and 106% and 97.2% | viability, T/C (compound 3.16 µM) 103% and 99.3% and 102% | viability, T/C (compound 10 µM) 103% and 107% and 104%

CC(C)n1c(=O)n(C)c2cnc3cc(F)c(-c4ccc(OCCCN5CCCCC5)nc4)cc3c21 + COc1cc2c(cc1O)CCNC21CSC2c3c(OC(C)=O)c(C)c4c(c3C(COC1=O)N1C(O)C3Cc5cc(C)c(OC)c(O)c5C(C21)N3C)OCO4
< 0.0316 µM: IC50 [5]
> 10 µM: IC50 [1] | IC50 [2] | IC50 [3] | IC50 [4]
active: viability, T/C [30] 7% | viability, T/C [31] 6.41% | viability, T/C [32] 9.42% | viability, T/C [33] 3.31% | viability, T/C [34] 2.99% | viability, T/C [35] 3.29%
inactive: viability, T/C [6] 104% | viability, T/C [7] 106% | viability, T/C [8] 106% | viability, T/C [9] 104% | viability, T/C [10] 114% | viability, T/C [11] 107% | viability, T/C [12] 106% | viability, T/C [13] 107% | viability, T/C [14] 105% | viability, T/C [15] 107% | viability, T/C [16] 123% | viability, T/C [17] 112% | viability, T/C [18] 103% | viability, T/C [19] 112% | viability, T/C [20] 111% | viability, T/C [21] 112% | viability, T/C [22] 116% | viability, T/C [23] 104% | viability, T/C [24] 93.8% | viability, T/C [25] 97.7% | viability, T/C [26] 92.6% | viability, T/C [27] 93.7% | viability, T/C [28] 106% | viability, T/C [29] 95.2%

Cc1sc2c(c1C)C(c1ccc(Cl)cc1)=NC(CC(=O)Nc1ccc(O)cc1)c1nnc(C)n1-2 (stereo unspecified)
0.763 µM and 0.77 µM and 0.666 µM: IC50 (curve of compound)
inactive: viability, T/C (compound 0.00949 µM) 102% and 106% and 98% | viability, T/C (compound 0.03 µM) 101% and 108% and 93.3% | viability, T/C (compound 0.0949 µM) 91.3% and 94.5% and 91.4% | viability, T/C (compound 0.3 µM) 85.1% and 78% and 76.3% | viability, T/C (compound 0.949 µM) 41.5% and 43.1% and 38.3% | viability, T/C (compound 3 µM) 23% and 23.8% and 20.7%

CC(C)n1c(=O)n(C)c2cnc3cc(F)c(-c4ccc(OCCCN5CCCCC5)nc4)cc3c21
inactive: viability, T/C (compound 0.0316 µM) 102% (2×) and 93.8% | viability, T/C (compound 0.1 µM) 106% and 97.1% and 100% | viability, T/C (compound 0.316 µM) 105% and 95.7% and 95.9% | viability, T/C (compound 1 µM) 108% and 102% and 105% | viability, T/C (compound 3.16 µM) 113% and 112% and 110% | viability, T/C (compound 10 µM) 108% and 110% and 111%
> 10 µM: IC50 (curve of compound)

CC(C)n1c(=O)n(C)c2cnc3cc(F)c(-c4ccc(OCCCN5CCCCC5)nc4)cc3c21 + Cn1nnc2c(C(N)=O)ncn2c1=O
> 10 µM: IC50 (curve of first compound, second compound 1 µM) | IC50 (curve of first compound, second compound 3.16 µM) | IC50 (curve of first compound, second compound 10 µM) | IC50 (curve of first compound, second compound 31.6 µM) | IC50 (curve of first compound, second compound 100 µM)
inactive: viability, T/C (second compound 1 µM, first compound 0.0316 µM) 93.1% | viability, T/C (second compound 1 µM, first compound 0.1 µM) 102% | viability, T/C (second compound 1 µM, first compound 0.316 µM) 91.8% | viability, T/C (second compound 1 µM, first compound 1 µM) 99.7% | viability, T/C (second compound 1 µM, first compound 3.16 µM) 101% | viability, T/C (second compound 1 µM, first compound 10 µM) 93.6% | viability, T/C (second compound 3.16 µM, first compound 0.0316 µM) 94.3% | viability, T/C (second compound 3.16 µM, first compound 0.1 µM) 102% | viability, T/C (second compound 3.16 µM, first compound 0.316 µM) 101% | viability, T/C (second compound 3.16 µM, first compound 1 µM) 119% | viability, T/C (second compound 3.16 µM, first compound 3.16 µM) 100% | viability, T/C (second compound 3.16 µM, first compound 10 µM) 94.2% | viability, T/C (second compound 10 µM, first compound 0.0316 µM) 90.8% | viability, T/C (second compound 10 µM, first compound 0.1 µM) 97.7% | viability, T/C (second compound 10 µM, first compound 0.316 µM) 98.4% | viability, T/C (second compound 10 µM, first compound 1 µM) 106% | viability, T/C (second compound 10 µM, first compound 3.16 µM) 106% | viability, T/C (second compound 10 µM, first compound 10 µM) 95% | viability, T/C (second compound 31.6 µM, first compound 0.0316 µM) 103% | viability, T/C (second compound 31.6 µM, first compound 0.1 µM) 103% | viability, T/C (second compound 31.6 µM, first compound 0.316 µM) 101% | viability, T/C (second compound 31.6 µM, first compound 1 µM) 104% | viability, T/C (second compound 31.6 µM, first compound 3.16 µM) 116% | viability, T/C (second compound 31.6 µM, first compound 10 µM) 90.8% | viability, T/C (second compound 100 µM, first compound 0.0316 µM) 103% | viability, T/C (second compound 100 µM, first compound 0.1 µM) 96.2% | viability, T/C (second compound 100 µM, first compound 0.316 µM) 98.3% | viability, T/C (second compound 100 µM, first compound 1 µM) 100% | viability, T/C (second compound 100 µM, first compound 3.16 µM) 95.8% | viability, T/C (second compound 100 µM, first compound 10 µM) 82.1%

From PubChem BioAssay AID1845208 (Molecular Pharmacology Branch, DTP, NCI, 2023)
